Values quoted from earlier work in US9011898B2, “Composition for active principles delivery containing a fatty acid excipient” (CID S.p.A., priority 2010, dated 2015).

Conditions: aqueous solutions

## CO[C@H]1C[C@@H]2CC[C@@H](C)[C@@](O)(O2)C(=O)C(=O)N2CCCC[C@H]2C(=O)O[C@H]([C@H](C)C[C@@H]2CC[C@@H](O)[C@H](OC)C2)CC(=O)[C@H](C)/C=C(\C)[C@@H](O)[C@@H](OC)C(=O)[C@H](C)C[C@H](C)/C=C/C=C/C=C/1C [Sirolimus]
  Stability in aqueous environments at neutral or basic pH with respect to acidic pH: less stable
